Results from patent US8865887B2, “Method for synthesizing calixarene and/or cyclodextrin copolymers, terpolymers and tetrapolymers, and uses thereof” (priority 2009, dated 2014).
Converted amounts (≈) assume the structure as drawn. Like-named read-outs stand apart in the source and are kept apart here.

Experiments:
[1] = Method: NIM is used to treat extra-articular and articular inflammatory forms. […] Phase solubility study was carried out according to the method described by Higuchi to study the influence of the complexation of different cyclodextrins on the solubility of NIM. Native cyclodextrins, modified cyclodextrins, cyclodextrin copolymers and cyclodextrin tetrapolymers were used. The cyclodextrin tetrapolymer, based on 35% of alpha-cyclodextrin, 35% beta-cyclodextrin and 30% gamma-cyclodextrin, is synthesized by direct melt polycondensation according to the example 1 and the ratio cyclodextrin/citric acid is 1/3.
Phase Solubility Method: Higuchi's Method
Suspensions were shaken at a temperature of 37° C. on a rotary flask shaker for 7 days and supernatants were filtered through polycarbonate membrane (0.45 μm pore size).

[2] = native cyclodextrins; cited from earlier work

| Kc [1] [mM⁻¹] | [Nimésulid] max. ([1]; 7 days) [mg/mL] | Structure (SMILES) | solubility in water [2] [mg/mL] | [Nimésulid] max. [1] [mg/mL] |
| --- | --- | --- | --- | --- |
| 0.473 | 0.09249 | OC[C@H]1O[C@@H]2O[C@H]3[C@H](O)[C@@H](O)[C@@H](O[C@H]4[C@H](O)[C@@H](O)[C@@H](O[C@H]5[C@H](O)[C@@H](O)[C@@H](O[C@H]6[C@H](O)[C@@H](O)[C@@H](O[C@H]7[C@H](O)[C@@H](O)[C@@H](O[C@H]8[C@H](O)[C@@H](O)[C@@H](O[C@H]1[C@H](O)[C@H]2O)O[C@@H]8CO)O[C@@H]7CO)O[C@@H]6CO)O[C@@H]5CO)O[C@@H]4CO)O[C@@H]3CO [beta-CD, β-cyclodextrin] | – | – |
| 0.0646 | – | OC[C@H]1O[C@@H]2O[C@H]3[C@H](O)[C@@H](O)[C@@H](O[C@H]4[C@H](O)[C@@H](O)[C@@H](O[C@H]5[C@H](O)[C@@H](O)[C@@H](O[C@H]6[C@H](O)[C@@H](O)[C@@H](O[C@H]7[C@H](O)[C@@H](O)[C@@H](O[C@H]8[C@H](O)[C@@H](O)[C@@H](O[C@H]9[C@H](O)[C@@H](O)[C@@H](O[C@H]1[C@H](O)[C@H]2O)O[C@@H]9CO)O[C@@H]8CO)O[C@@H]7CO)O[C@@H]6CO)O[C@@H]5CO)O[C@@H]4CO)O[C@@H]3CO [gamma-CD, γ-cyclodextrin] | 236 (≈ 182 mM) | 0.1449 |

| Structure (SMILES) | Kc [1] [mM⁻¹] | [Nimésulid] max. ([1]; 7 days) [mg/mL] | solubility in water [2] [mg/mL] | [Nimésulid] max. [1] [mg/mL] |
| --- | --- | --- | --- | --- |
| OC[C@H]1O[C@@H]2O[C@H]3[C@H](O)[C@@H](O)[C@@H](O[C@H]4[C@H](O)[C@@H](O)[C@@H](O[C@H]5[C@H](O)[C@@H](O)[C@@H](O[C@H]6[C@H](O)[C@@H](O)[C@@H](O[C@H]7[C@H](O)[C@@H](O)[C@@H](O[C@H]1[C@H](O)[C@H]2O)O[C@@H]7CO)O[C@@H]6CO)O[C@@H]5CO)O[C@@H]4CO)O[C@@H]3CO [alpha-CD, α-cyclodextrin] | 0.045 | – | 127 (≈ 131 mM) | 0.07708 |
